We go through five molecules from PubChem BioAssay AID192 (DTP/NCI, 2004).

The test system of this assay is BDF1 mice, B16 melanoma ip, median survival T/C. The experiment in a line: NCI In Vivo Anticancer Drug Screen. Data for tumor model B16 Melanoma (intraperitoneal) in B6D2F1 (BDF1) mice. The conditions noted are these: endpoint: median survival time, higher = longer survival. The method, boiled down:
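In this screen, activity was judged from survival or tumor size in treated versus vehicle-treated tumor-bearing mice, reported as T/C.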

Each structure is given as a SMILES string. Several values for one entry are separate records, joined by “and”; a condition that tells them apart may be missing. Identical values can stand only once. Inconclusive results and toxic doses are left out.

For `O=C(O)c1c2c(nc3ccccc13)Cc1ccccc1-2`, the T/C reads like this: (dose: 3.12 mg/kg/injection, schedule: Q01DX009 (ip), vehicle: Klucel (hydroxypropylcellulose) (HPC)) 100 % of control; (dose: 6.25 mg/kg/injection, schedule: Q01DX009 (ip), vehicle: Klucel (hydroxypropylcellulose) (HPC)) 96 % of control and 103 % of control; (dose: 6.25 mg/kg/injection, schedule: Q01DX009 (ip), vehicle: water) 89 % of control; (dose: 12.5 mg/kg/injection, schedule: Q01DX009 (ip), vehicle: Klucel (hydroxypropylcellulose) (HPC)) 98 % of control and 103 % of control and 119 % of control; (dose: 12.5 mg/kg/injection, schedule: Q01DX009 (ip), vehicle: water) 96 % of control and 108 % of control; (dose: 25.0 mg/kg/injection, schedule: Q01DX009 (ip), vehicle: water) 112 % of control and 114 % of control. For the same molecule, the T/C (dose: 30.0 mg/kg/injection, schedule: Q03HX008 (ip), vehicle: water) was 96 % of control; the T/C (dose: 30.0 mg/kg/injection, schedule: Q03HX016 (ip), vehicle: water) is 107 % of control; the T/C (dose: 30.0 mg/kg/injection, schedule: Q03HX024 (ip), vehicle: water) is 101 % of control; the T/C (dose: 44.0 mg/kg/injection, schedule: Q01DX005 (iv), vehicle: water) was 102 % of control; the T/C (dose: 44.0 mg/kg/injection, schedule: Q01DX009 (ip), vehicle: water) was 120 % of control; the T/C (dose: 44.0 mg/kg/injection, schedule: Q01DX009 (sc), vehicle: water) was 102 % of control. The T/C is 118 % of control (dose: 44.0 mg/kg/injection, schedule: Q03HX008 (ip), vehicle: water); 102 % of control (dose: 44.0 mg/kg/injection, schedule: Q03HX016 (ip), vehicle: water); 118 % of control (dose: 44.0 mg/kg/injection, schedule: Q03HX024 (ip), vehicle: water); 107 % of control (dose: 67.0 mg/kg/injection, schedule: Q01DX001 (ip), vehicle: water); 92 % of control (dose: 67.0 mg/kg/injection, schedule: Q01DX005 (iv), vehicle: water); 169 % of control (dose: 67.0 mg/kg/injection, schedule: Q01DX009 (ip), vehicle: water). Further, the T/C (dose: 67.0 mg/kg/injection, schedule: Q01DX009 (oral), vehicle: water) is 99 % of control; the T/C (dose: 67.0 mg/kg/injection, schedule: Q01DX009 (sc), vehicle: water) was 108 % of control; the T/C (dose: 67.0 mg/kg/injection, schedule: Q03HX008 (ip), vehicle: water) is 106 % of control; the T/C (dose: 67.0 mg/kg/injection, schedule: Q03HX016 (ip), vehicle: water) was 104 % of control; the T/C (dose: 67.0 mg/kg/injection, schedule: Q03HX024 (ip), vehicle: water) was 112 % of control; the T/C (dose: 67.0 mg/kg/injection, schedule: Q04DX003 (ip), vehicle: water) was 116 % of control. For the same molecule, the T/C by setting is: (dose: 67.0 mg/kg/injection, schedule: Q08DX002 (ip), vehicle: water) 106 % of control; (dose: 89.0 mg/kg/injection, schedule: Q01DX001 (ip), vehicle: Klucel (hydroxypropylcellulose) (HPC)) 106 % of control; (dose: 100.0 mg/kg/injection, schedule: Q01DX001 (ip), vehicle: water) 102 % of control; (dose: 100.0 mg/kg/injection, schedule: Q01DX001 (oral), vehicle: water) 101 % of control; (dose: 100.0 mg/kg/injection, schedule: Q01DX005 (iv), vehicle: water) 100 % of control; (dose: 100.0 mg/kg/injection, schedule: Q01DX009 (oral), vehicle: water) 94 % of control. The T/C was 108 % of control (dose: 100.0 mg/kg/injection, schedule: Q01DX009 (sc), vehicle: water); 120 % of control (dose: 100.0 mg/kg/injection, schedule: Q03HX008 (ip), vehicle: water); 118 % of control (dose: 100.0 mg/kg/injection, schedule: Q03HX016 (ip), vehicle: water); 112 % of control (dose: 100.0 mg/kg/injection, schedule: Q03HX024 (ip), vehicle: water); 110 % of control (dose: 100.0 mg/kg/injection, schedule: Q04DX003 (ip), vehicle: water); 113 % of control (dose: 100.0 mg/kg/injection, schedule: Q08DX002 (ip), vehicle: water). For the same molecule, the T/C reads like this: (dose: 133.0 mg/kg/injection, schedule: Q01DX009 (ip), vehicle: Klucel (hydroxypropylcellulose) (HPC)) 156 % of control; (dose: 133.0 mg/kg/injection, schedule: Q04DX003 (ip), vehicle: Klucel (hydroxypropylcellulose) (HPC)) 124 % of control; (dose: 150.0 mg/kg/injection, schedule: Q01DX001 (ip), vehicle: water) 98 % of control and 104 % of control; (dose: 150.0 mg/kg/injection, schedule: Q01DX001 (oral), vehicle: water) 98 % of control; (dose: 150.0 mg/kg/injection, schedule: Q01DX005 (iv), vehicle: water) 102 % of control; (dose: 150.0 mg/kg/injection, schedule: Q01DX009 (oral), vehicle: water) 90 % of control. Also, the T/C runs as follows: (dose: 150.0 mg/kg/injection, schedule: Q01DX009 (sc), vehicle: water) 115 % of control; (dose: 150.0 mg/kg/injection, schedule: Q03HX008 (ip), vehicle: water) 121 % of control; (dose: 150.0 mg/kg/injection, schedule: Q04DX003 (ip), vehicle: water) 108 % of control and 122 % of control; (dose: 150.0 mg/kg/injection, schedule: Q08DX002 (ip), vehicle: water) 121 % of control; (dose: 200.0 mg/kg/injection, schedule: Q01DX001 (ip), vehicle: Klucel (hydroxypropylcellulose) (HPC)) 124 % of control; (dose: 200.0 mg/kg/injection, schedule: Q01DX009 (ip), vehicle: water) 152 % of control. Moreover, the T/C is 93 % of control and 110 % of control (dose: 225.0 mg/kg/injection, schedule: Q01DX001 (ip), vehicle: water); 94 % of control (dose: 225.0 mg/kg/injection, schedule: Q01DX001 (oral), vehicle: water); 104 % of control (dose: 225.0 mg/kg/injection, schedule: Q01DX005 (iv), vehicle: water); 92 % of control (dose: 225.0 mg/kg/injection, schedule: Q01DX009 (oral), vehicle: water); 104 % of control (dose: 225.0 mg/kg/injection, schedule: Q01DX009 (sc), vehicle: water); 107 % of control and 111 % of control (dose: 225.0 mg/kg/injection, schedule: Q04DX003 (ip), vehicle: water). Besides, the T/C by setting is: (dose: 225.0 mg/kg/injection, schedule: Q08DX002 (ip), vehicle: water) 111 % of control; (dose: 337.0 mg/kg/injection, schedule: Q01DX001 (ip), vehicle: water) 98 % of control; (dose: 337.0 mg/kg/injection, schedule: Q01DX001 (oral), vehicle: water) 99 % of control; (dose: 337.0 mg/kg/injection, schedule: Q01DX009 (oral), vehicle: water) 97 % of control; (dose: 337.0 mg/kg/injection, schedule: Q04DX003 (ip), vehicle: water) 105 % of control and 112 % of control; (dose: 450.0 mg/kg/injection, schedule: Q01DX001 (ip), vehicle: Klucel (hydroxypropylcellulose) (HPC)) 111 % of control. Further, for the setting “dose: 506.0 mg/kg/injection, schedule: Q01DX001 (oral), vehicle: water”, the T/C is 93 % of control.

Consider `CC(C)C(O)(C(=O)NN)C(=O)NN`, for which the T/C by setting is: (dose: 50.0 mg/kg/injection, schedule: Q04DX003 (ip), vehicle: saline) 91 % of control; (dose: 100.0 mg/kg/injection, schedule: Q04DX003 (ip), vehicle: saline) 96 % of control; (dose: 200.0 mg/kg/injection, schedule: Q04DX003 (ip), vehicle: saline) 117 % of control.

Regarding `CC(C)NNC(=O)c1ccncc1`, the T/C is, setting by setting: (dose: 12.5 mg/kg/injection, schedule: Q01DX009 (ip), vehicle: saline) 107 % of control; (dose: 25.0 mg/kg/injection, schedule: Q01DX009 (ip), vehicle: saline) 94 % of control and 101 % of control; (dose: 50.0 mg/kg/injection, schedule: Q01DX009 (ip), vehicle: saline) 95 % of control and 101 % of control; (dose: 100.0 mg/kg/injection, schedule: Q01DX009 (ip), vehicle: saline) 110 % of control; (dose: 200.0 mg/kg/injection, schedule: Q01DX009 (ip), vehicle: saline) 92 % of control and 104 % of control.

As to `O=C(/C=C/c1ccccc1)CC(O)(C(F)(F)F)C(F)(F)F`, the T/C is 90 % of control (dose: 100.0 mg/kg/injection, schedule: Q04DX003 (sc), vehicle: olive oil, sesame oil, peanut oil); 95 % of control (dose: 200.0 mg/kg/injection, schedule: Q04DX003 (sc), vehicle: olive oil, sesame oil, peanut oil); 90 % of control (dose: 400.0 mg/kg/injection, schedule: Q04DX003 (sc), vehicle: olive oil, sesame oil, peanut oil).

Consider `Oc1c(Br)cc(Br)cc1/C=N/N=C/c1cc(Br)cc(Br)c1O`, for which the T/C runs as follows: (dose: 100.0 mg/kg/injection, schedule: Q01DX009 (ip), vehicle: Klucel (hydroxypropylcellulose) (HPC)) 90 % of control; (dose: 200.0 mg/kg/injection, schedule: Q01DX009 (ip), vehicle: Klucel (hydroxypropylcellulose) (HPC)) 87 % of control.
